Test results: patent publication US20170008845A1, “PYRIDINYL CYCLOHEXANECARBOXAMIDE COOLING COMPOUNDS” (Givaudan, S.A., priority 2005, published 2017)
Read-outs that look alike come from different tables or passages of the source.

How the values were obtained:
[1] = tested on: panelists (cooling sensation in the mouth); test: Panel tasting of aqueous solutions: cooling intensity matched to menthol 2 ppm, and longevity; assay type: in vivo; conditions: for Longevity (time until no cooling could be sensed in the mouth): aqueous solution at the chosen concentration of Table 2; for Concentration with cooling intensity similar or slightly higher than menthol at 2 ppm: aqueous solution, tasted by a small panel
From the text: The same panel is asked to taste these solutions at the chosen concentrations and to record the cooling intensity at regular time intervals until no cooling could be sensed in the mouth.

mouth and lips = conditions: 50 mL of 1% solution in alcohol per 1 liter mouthwash (with peppermint oil); 30 mL swished, gargled, spit out
Method: All the ingredients are mixed. 30 mL of obtained solution is put in the mouth, swished around, gargled and spit out.

[2] = tested on: panelists (cooling sensation in the mouth); conditions: cooling intensity similar to or slightly higher than menthol at 2 ppm
panelist's mouth [3] = conditions: 2.500 g of 2% solution in propylene glycol in 97 g opaque toothgel (with peppermint oil); teeth brushed, mouth rinsed
From the text: The chemicals are mixed in the toothgel, a piece of toothgel is put on a toothbrush and a panelist's teeth are brushed. The mouth is rinsed with water and the water is spit out.

panelist's mouth [4] = conditions: 1.5 mg in 355 mL can of clear lemon/lime soda
Method: 1.5 mg of the compound of example 2 is dissolved in a 355 mL (12 fl oz.) can of clear lemon/lime soda.

SMILES	Longevity (time until no cooling could be sensed in the mouth) [1] [min]	Concentration with cooling intensity similar or slightly higher than menthol at 2 ppm [1] [ppm]	Cooling sensation in mouthwash (mouth and lips)	Isointensive concentration [2] [ppm]	Isointensive concentration ([2]; listed as m = 0, 4) [ppm]	Cooling sensation in toothgel (panelist's mouth [3])	After-taste in beverage (panelist's mouth [4])	Cooling sensation in beverage (panelist's mouth [4])	Isointensive concentration ([2]; listed as m = 2, 2 or 6) [ppm]
CC1CCC(C(C)C)C(C(=O)Nc2ccncc2)C1 (centres unmarked) [Example 1, N-(4-pyridinyl) p-menthanecarboxamide]	50	0.5	icy-cool sensation is felt in every area of the mouth as well as lips	0.67	0.5	–	–	–	–
CC(C)[C@@H]1CC[C@@H](C)C[C@H]1C(=O)NCCc1ccccn1 [Example 2, (1R,2S,5R)-2-isopropyl-5-methyl-N-(2-(pyridin-2-yl)ethyl)cyclohexanecarboxamide]	60	0.02	–	0.05	–	intense cooling sensation is felt by the panelist in all areas of the mouth	No unpleasant after-taste	agreeable delayed cooling sensation in the mouth with no throat burning	0.02
CC(C)C(C)(C(=O)NCCc1ccccn1)C(C)C [Example 3, 2-isopropyl-2,3-dimethyl-N-(2-(pyridin-2-yl)ethyl)butanamide]	–	0.4	–	–	–	–	–	–	–
CCNC(=O)C1CC(C)CCC1C(C)C (centres unmarked) [N-ethyl p-menthanecarboxamide (WS-3), N-ethyl p-menthanecarboxamide, reference compound]	57	1.5	–	–	–	–	–	–	–
CC(C)[C@@H]1CC[C@@H](C)C[C@H]1O [l-Menthol, reference compound]	35	2.0	–	–	–	–	–	–	–
